Data from the METLIN SMRT retention time set (Domingo-Almenara et al. 2019).

Test: gradient 5% acetonitrile 3 min, to 50% in 2 min, to 85% in 15 min, held 3 min, 100 µL/min
Details: column: Zorbax Extend-C18 2.1 x 50 mm; eluents: water / acetonitrile, 0.1% formic acid
In short: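 Each retention time is based on an adduct peak selected computationally and verified by manual inspection. Measurements used HPLC–quadrupole time-of-flight mass spectrometry in positive and negative ionization mode on mixtures of ~100 pure standards. Chromatography ran on a Zorbax Extend-C18 column (2.1 × 50 mm, 1.8 μm) at 100 μL/min with water and acetonitrile, each containing 0.1% formic acid, and dead and dwell volumes of 40 μL and 900 μL.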

| Compound | RP-LC retention time [s] |
| --- | --- |
| c1ccc(-n2ncc3c(Nc4ccc5c(c4)OCO5)nc(N4CCOCC4)nc32)cc1 | 1100 |
| COc1ccc(-c2nc(-c3ccc4c(c3)oc(=O)n4C(C)C)no2)cc1F | 1160 |
| O=C(NC1CCCC1)NC1CCN(c2ccccc2)C1=O (configuration not stated) | 726 |
| O=C(CCc1conc1-c1ccccc1)NCc1ccc2c(c1)OCO2 | 806 |
| COc1ccc(Cl)cc1NC(=O)CN1C(=O)NC2(CCCCC2)C1=O | 831 |
| CCc1noc(-c2ccc(-n3ncc(C(=O)N4CCSCC4)c3C)nc2)n1 | 893 |
| O=C(NCc1ccc(C(F)(F)F)cc1)C1CCCN(c2nccnc2Oc2ccccc2)C1 (configuration not stated) | 1040 |
| CCN1c2cc(F)ccc2C(=O)NC12CCN(C(=O)c1cccc(F)c1)CC2 | 791 |
| O=C(Nc1ccc2c(c1)OCCO2)C1CCCN(S(=O)(=O)Cc2ccc(F)cc2)C1 (configuration not stated) | 905 |
| CC(C)S(=O)(=O)N1CCC(c2noc(-c3cccnc3)n2)C1 (configuration not stated) | 730 |
| CCN(c1ccc(OC)cc1)S(=O)(=O)c1ccc2c(c1)CCCC(=O)N2 | 804 |
| Cc1cc(C(=O)N2CCC(c3noc(N)c3C(C)C)CC2)c(C)o1 | 759 |
| O=C(Cn1c(=O)c2cccn2c2ccc(F)cc21)NCCCN1CCCC1 | 598 |
| CCOC(=O)c1sc(NC(=O)c2cc(=O)c3ccccc3o2)nc1-c1ccccc1 | 1010 |
| COc1cccc(-n2cc(C(=O)OCCc3ccccn3)c3ccccc3c2=O)c1 | 714 |
| Cc1nc2sccn2c1-c1nnc(SCc2ccc([N+](=O)[O-])cc2)n1C | 626 |
| CC(=O)c1cccc(NC(=O)CN(C)c2nc3c(F)cccc3s2)c1 | 798 |
| CN(Cc1nc(-c2ccc(N3CCCCC3)nc2)no1)C1CCCCC1 | 666 |
| CN(C(=O)CSc1nnc(-c2cn(C)nc2-c2ccccc2)n1C)c1ccccc1 | 712 |
| COc1cccc(CNC(=O)C2CCN(c3cc(N4CCOCC4)ncn3)CC2)c1 | 616 |
| Cc1ccc(Cn2c(=O)n(CCNC(=O)C3CCC3)c3ncccc32)cc1 | 779 |
| O=C(O)c1cc2c(s1)CCN(C(=O)c1ccc(Cl)cc1)C2 | 736 |
| C=CCn1c(=O)c2ccccc2n(Cc2nc(-c3ccc(Cl)c(F)c3)no2)c1=O | 1120 |

| Compound | RP-LC retention time [s] |
| --- | --- |
| O=c1ccc(-c2ccc(F)cc2)nn1CCc1nc(-c2ccc(F)c(Br)c2)no1 | 1120 |
| O=C(c1c(F)cccc1F)N1CCN(S(=O)(=O)c2cc3c4c(c2)CCC(=O)N4CCC3)CC1 | 799 |
| O=c1ccc(S(=O)(=O)N2CCCC2)cn1Cc1ccccc1Cl | 854 |
| Cc1cc(Cl)ccc1NC(=O)c1cccn1Cc1noc(C2CC2)n1 | 1020 |
| CC(C)N(C(=O)Cn1c(C2CC(=O)N(Cc3ccccc3)C2)nc2ccccc21)C(C)C (configuration not stated) | 764 |
| CS(=O)(=O)Nc1ccc(C2(C(=O)NCCC3=CCCCC3)CCCCC2)cc1 | 1030 |
| COc1ccc(CC(=O)NCC2CCC(c3nc4ccccc4n3C)CC2)cc1 (configuration not stated) | 579 |
| Cn1nc(C(=O)N2CCCC2)c2c1CCN(C(=O)CCC(=O)N1CCN(c3ccccn3)CC1)C2 | 579 |
| COCCN1C(=O)CCC2(C(=O)Nc3cc(OC)cc(OC)c3)CCCC=C12 (configuration not stated) | 763 |
| O=C(Cn1ccn2nc(-c3ccccc3)c(CO)c2c1=O)NCCC1=CCCCC1 | 857 |
| Cc1cc(C2CCCN2C(=O)c2cc(-c3ccccc3F)no2)no1 (configuration not stated) | 885 |
| Cc1ccc(-c2cn3c(CC(=O)Nc4ccc(C#N)cc4)csc3n2)cc1C | 821 |
| COCCNC(=O)c1ccc(-c2ccc(N3CCCCC3)nc2)cc1 | 603 |
| COc1cccc(N2CCN(c3ccnc(SCC(=O)Nc4ccc(OC)c(Cl)c4)n3)CC2)c1 | 754 |
| O=C(Nc1ccc(Cl)cc1)C1CCN(C(=O)c2ncn3c2COC(c2ccccc2)C3)CC1 (configuration not stated) | 859 |
| CCCn1ccc2sc(C)c(C(=O)O)c2c1=O | 774 |
| CCCN1C(=O)COc2ccc(-c3noc(/C=C/c4ccc(OC)cc4)n3)cc21 | 1190 |
| Cc1cc(C)c2c(n1)SCCN2C(=O)CCC(=O)NCc1ccccc1C | 700 |
| Cc1nnc(-c2ccc(S(=O)(=O)N3CCC(C)CC3)o2)o1 | 815 |
| CCOC(=O)C1CCCN(C(=O)c2ccc(SCCN3CCCCC3)nc2)C1 (configuration not stated) | 629 |
| CC(C)c1nnc(-c2sccc2NC(=O)C2CCC2)o1 | 1230 |
| O=C(NCc1cccs1)c1nnc(-c2ccc(S(=O)(=O)N3CCOCC3)cc2)o1 | 804 |
| CCn1cc(S(=O)(=O)N2CCN(c3ccccc3)CC2)c2cccnc21 | 969 |

| Compound | RP-LC retention time [s] |
| --- | --- |
| Cc1cccc(-c2noc(Cn3c(=O)n(Cc4ccccc4Cl)c(=O)c4sccc43)n2)c1 | 1150 |
| Cc1noc(C)c1-c1ccc(S(=O)(=O)Nc2ccc(F)c(F)c2)cc1 | 939 |
| O=C(NCCN1CCc2ccccc2C1)c1cccc2c1CCN2C(=O)C1CC1 | 640 |
| Cc1c(Cl)cccc1NC(=O)N(C)CC1CCOC1 (configuration not stated) | 720 |
| COc1ncccc1CNC(=O)CCc1ccccc1 | 738 |
| O=C(CSc1ccc(NC(=O)c2cccs2)nn1)Nc1nc2ccccc2s1 | 840 |
| Cc1ccc(NC(=O)Cn2nc3cc(C)nc(-c4ccccc4)n3c2=O)c(C)c1 | 832 |
| Cc1ccccc1Nc1c(-c2cccc(Br)c2)nc2ccc(Cl)cn12 | 1100 |
| CCN(CCNC(=O)c1cc(=O)n(C)c2c1c(=O)n(C)c(=O)n2C)Cc1ccccc1 | 646 |
| O=C(c1cnn2c(C(F)(F)F)cc(-c3ccccc3)nc12)N1CCN(c2ccccn2)CC1 | 687 |
| N#Cc1cccc(S(=O)(=O)N2CCc3nc(-c4ccc(F)cc4)ncc3C2)c1 | 1030 |
| Clc1ccc(C2Cn3nnc(-c4nc(-c5ccccn5)no4)c3CO2)cc1 (configuration not stated) | 936 |
| CCNc1cc(C)nc(N2CCN(C(=O)c3ccccc3)CC2)n1 | 616 |
| O=[N+]([O-])c1cc(O)c(O)c([N+](=O)[O-])c1 | 730 |
| COc1ccc(CCC(=O)N2CCC3(C2)C(=O)Nc2ccccc23)cc1 (configuration not stated) | 729 |
| CCc1cccc(NC(=O)N2CCC(n3cnnc3C)CC2)c1 | 650 |
| O=C(Nc1c(-c2ccc(F)cc2)nc2ccccn12)C1CC1 | 578 |
| COc1ccc(C2Cn3nnc(-c4nc(-c5ccccc5OC)no4)c3CO2)cc1 (configuration not stated) | 1010 |
| Cc1ccc(S(=O)(=O)c2nc(C)oc2NCc2ccco2)cc1 | 814 |
| O=C(NCc1ccccc1)N1CCCC(Cn2cnc3cccnc32)C1 (configuration not stated) | 618 |
| O=c1ccc(S(=O)(=O)N2CCOCC2)cn1Cc1ccc(Cl)cc1 | 814 |
